Assay results as given in the NIST ThermoML archive (doi:10.1016/j.jct.2004.07.010).
± gives the expanded uncertainty stated by the source.

Key:
[1] = 298.15 K, 101.33 kPa, Liquid
[2] = refractive index (Na D-line) (dimensionless); details: 293.15 K; 101.33 kPa; Liquid; Standard Abbe refractometry

Row | SMILES | mass density [1] [kg/m3] | refractive index [2] | mass density ([1]; Vibrating tube method) [kg/m3]
1 | Cc1ccccc1 [toluene] | 862.14 ± 0.94 | 1.4965 ± 0.0008 | –
2 | CCc1ccccc1 [ethylbenzene] | – | 1.4962 ± 0.0008 | 862.44 ± 0.55
3 | c1ccccc1 [benzene] | 873.56 ± 0.35 | 1.5009 ± 0.0007 | –
4 | C=Cc1ccccc1 [styrene] | 901.51 ± 0.31 | 1.546 ± 0.0007 | –
5 | O=C1CCCCC1 [cyclohexanone] | – | 1.4507 ± 0.0007 | 941.7 ± 0.11
